Source: patent publication US7015215B2, “Pyrrolo[2,1-c][1,4] benzodiazepines compounds and process thereof” (Council of Scientific and Industrial Research, priority 2003, dated 2006)

Key:
NCI-H226 = experiment: NCI SRB cytotoxicity, Non-small-cell lung NCI-H226; type: cell-based, human; conditions: 48 h
Protocol: (§1) Biological Activity: In vitro biological activity studies were carried out at National Cancer Institute (U.S.A.).
(§2) For each compound, dose response curves for each cell line were measured at a minimum of five concentrations at 10 fold dilutions. A protocol of 48 h continuous drug exposure was used, and a sulforhodamine B (SRB) protein assay was used to estimate cell viability or growth. The concentration causing 50% cell growth inhibition (GI50), total cell growth inhibition (TGI, 0% growth) and 50% cell death (LC50, −50% growth) compared with the control was calculated.

SK-MEL-28 = experiment: NCI SRB cytotoxicity, Melanoma SK-MEL-28; type: cell-based, human; conditions: SK-MEL-28, Melanoma, 48 h
Protocol: as §1, §2

K-62 = experiment: NCI SRB cytotoxicity, Leukemia K-62; type: cell-based, human; conditions: K-62, Leukemia, 48 h
Protocol: as §1, §2

PC-3 = experiment: NCI SRB cytotoxicity, Prostate PC-3; type: cell-based, human; conditions: PC-3, Prostate, 48 h
Protocol: as §2

SNB-75 = experiment: NCI SRB cytotoxicity, CNS SNB-75; type: cell-based, human; conditions: SNB-75, CNS, 48 h
Protocol: as §1, §2

786-0 = experiment: NCI SRB cytotoxicity, Renal 786-0; type: cell-based, human; conditions: 786-0, Renal, 48 h
Protocol: as §1, §2

TK-10 = experiment: NCI SRB cytotoxicity, Renal TK-10; type: cell-based, human; conditions: TK-10, Renal, 48 h
Protocol: as §1, §2

SK-MEL-2 = experiment: NCI SRB cytotoxicity, Melanoma SK-MEL-2; type: cell-based, human; conditions: SK-MEL-2, Melanoma, 48 h
Protocol: as §1, §2

human tumor cell lines = experiment: NCI in vitro cytotoxicity SRB assay, mean graph midpoints over the panel; type: cell-based; conditions: 48 h continuous exposure
Protocol: as §1, §2

OVCAR-5 = experiment: NCI SRB cytotoxicity, Ovarian OVCAR-5; type: cell-based, human; conditions: OVCAR-5, Ovarian, 48 h
Protocol: as §1, §2

A549/ATCC = experiment: NCI SRB cytotoxicity, Non-small-cell lung A549/ATCC; type: cell-based, human; conditions: 48 h
Protocol: as §1, §2

IGROVI = experiment: NCI SRB cytotoxicity, Ovarian IGROVI; type: cell-based, human; conditions: 48 h
OVCAR-3 = experiment: NCI SRB cytotoxicity, Ovarian OVCAR-3; type: cell-based, human; conditions: OVCAR-3, Ovarian, 48 h
Protocol: as §1, §2

M14 = experiment: NCI SRB cytotoxicity, Melanoma M14; type: cell-based, human; conditions: 48 h
Protocol: as §1, §2

SW-620 = experiment: NCI SRB cytotoxicity, Colon SW-620; type: cell-based, human; conditions: SW-620, Colon, 48 h
Protocol: as §1, §2

UACC-257 = experiment: NCI SRB cytotoxicity, Melanoma UACC-257; type: cell-based, human; conditions: UACC-257, Melanoma, 48 h
Protocol: as §1, §2

NCI-H322 = experiment: NCI SRB cytotoxicity, Non-small-cell lung NCI-H322; type: cell-based, human; conditions: 48 h
Protocol: as §1, §2

RXF 393 = experiment: NCI SRB cytotoxicity, Renal RXF 393; type: cell-based, human; conditions: RXF 393, Renal, 48 h
Protocol: as §2

NCI-H23 = experiment: NCI SRB cytotoxicity, Non-small-cell lung NCI-H23; type: cell-based, human; conditions: 48 h
Protocol: as §1, §2

A498 = experiment: NCI SRB cytotoxicity, Renal A498; type: cell-based, human; conditions: 48 h
Protocol: as §1, §2

MOLT-4 = experiment: NCI SRB cytotoxicity, Leukemia MOLT-4; type: cell-based, human; conditions: MOLT-4, Leukemia, 48 h
Protocol: as §1, §2

EKVX = experiment: NCI SRB cytotoxicity, Non-small-cell lung EKVX; type: cell-based, human; conditions: 48 h
Protocol: as §1, §2

MCF7 = experiment: NCI SRB cytotoxicity, Breast MCF7; type: cell-based, human; conditions: 48 h
Protocol: as §1, §2

HS578T = experiment: NCI SRB cytotoxicity, Breast HS578T; type: cell-based, human; conditions: 48 h
Protocol: as §1, §2

RPMI-8226 = experiment: NCI SRB cytotoxicity, Leukemia RPMI-8226; type: cell-based, human; conditions: RPMI-8226, Leukemia, 48 h
Protocol: as §2

SF-268 = experiment: NCI SRB cytotoxicity, CNS SF-268; type: cell-based, human; conditions: SF-268, CNS, 48 h
Protocol: as §1, §2

BT-549 = experiment: NCI SRB cytotoxicity, Breast BT-549; type: cell-based, human; conditions: BT-549, Breast, 48 h
Protocol: as §1, §2

HCT-116 = experiment: NCI SRB cytotoxicity, Colon HCT-116; type: cell-based, human; conditions: HCT-116, Colon, 48 h
Protocol: as §1, §2

UACC-62 = experiment: NCI SRB cytotoxicity, Melanoma UACC-62; type: cell-based, human; conditions: UACC-62, Melanoma, 48 h
Protocol: as §1, §2

KM-12 = experiment: NCI SRB cytotoxicity, Colon KM-12; type: cell-based, human; conditions: KM-12, Colon, 48 h
Protocol: as §1, §2

DU-145 = experiment: NCI SRB cytotoxicity, Prostate DU-145; type: cell-based, human; conditions: DU-145, Prostate, 48 h
Protocol: as §2

SN12C = experiment: NCI SRB cytotoxicity, Renal SN12C; type: cell-based, human; conditions: 48 h
Protocol: as §1, §2

MDA-MB-435 = experiment: NCI SRB cytotoxicity, Breast MDA-MB-435; type: cell-based, human; conditions: MDA-MB-435, Breast, 48 h
Protocol: as §1, §2

HOP-92 = experiment: NCI SRB cytotoxicity, Non-small-cell lung HOP-92; type: cell-based, human; conditions: HOP-92, Non-small-cell lung, 48 h
Protocol: as §1, §2

UO-31 = experiment: NCI SRB cytotoxicity, Renal UO-31; type: cell-based, human; conditions: UO-31, Renal, 48 h
Protocol: as §2

HL-60(TB) = conditions: Leukemia, 48 h, SRB
Protocol: as §1, §2

SK-MEL-5 = experiment: NCI SRB cytotoxicity, Melanoma SK-MEL-5; type: cell-based, human; conditions: SK-MEL-5, Melanoma, 48 h
Protocol: as §1, §2

COc1cc2c(cc1OCCN1CCN(CCOc3cc4c(cc3OC)C(=O)N3CCC[C@H]3C=N4)CC1)N=C[C@@H]1CCCN1C2=O [Compound VIa, 1,1′-{[(bisethane-1,N-diyl)piperazine]dioxy}bis[(11aS)-7-methoxy-1,2,3,11a-tetrahydro-5H-pyrrolo[2,1-c][1,4]benzodiazepin-5-one]]
Log GI 50 (NCI-H226): −4.80 mol/L
Log LC 50 (NCI-H226): −4.00 mol/L
Log GI 50 (SK-MEL-28): −4.22 mol/L
Log LC 50 (SK-MEL-28): −4.00 mol/L
Log GI 50 (K-62): −4.58 mol/L
Log LC 50 (K-62): −4.00 mol/L
Log GI 50 (PC-3): −4.44 mol/L
Log LC 50 (PC-3): −4.00 mol/L
Log GI 50 (SNB-75): −4.23 mol/L
Log LC 50 (SNB-75): −4.00 mol/L
Log GI 50 (786-0): −4.84 mol/L
Log LC 50 (786-0): −4.00 mol/L
Log GI 50 (TK-10): −4.63 mol/L
Log LC 50 (TK-10): −4.00 mol/L
Log GI 50 (SK-MEL-2): −4.57 mol/L
Log LC 50 (SK-MEL-2): −4.00 mol/L
Log10 GI50 mean graph midpoint (MG_MID) (human tumor cell lines): −4.69
Log10 LC50 mean graph midpoint (MG_MID) (human tumor cell lines): −4.03
Log10 TGI mean graph midpoint (MG_MID) (human tumor cell lines): −4.16
Log GI 50 (OVCAR-5): −4.65 mol/L
Log LC 50 (OVCAR-5): −4.00 mol/L
Log GI 50 (A549/ATCC): −4.10 mol/L
Log LC 50 (A549/ATCC): −4.00 mol/L
Log GI 50 (IGROVI): −4.21 mol/L
Log LC 50 (IGROVI): −4.00 mol/L
Log GI 50 (OVCAR-3): −4.68 mol/L
Log LC 50 (OVCAR-3): −4.00 mol/L
Log GI 50 (M14): −4.61 mol/L
Log GI 50 (SW-620): −4.68 mol/L
Log LC 50 (SW-620): −4.00 mol/L
Log GI 50 (UACC-257): −4.49 mol/L
Log LC 50 (UACC-257): −4.00 mol/L
Log GI 50 (NCI-H322): −4.51 mol/L
Log LC 50 (NCI-H322): −4.00 mol/L
Log GI 50 (RXF 393): −4.23 mol/L
Log LC 50 (RXF 393): −4.00 mol/L
Log GI 50 (NCI-H23): −4.76 mol/L
Log LC 50 (NCI-H23): −4.00 mol/L
Log GI 50 (A498): −4.29 mol/L
Log LC 50 (A498): −4.00 mol/L
Log GI 50 (MOLT-4): −5.68 mol/L
Log LC 50 (MOLT-4): −4.10 mol/L
Log GI 50 (EKVX): −4.00 mol/L
Log LC 50 (EKVX): −4.00 mol/L
Log GI 50 (MCF7): −4.88 mol/L
Log LC 50 (MCF7): −4.00 mol/L
Log GI 50 (HS578T): −4.34 mol/L
Log LC 50 (HS578T): −4.00 mol/L
Log GI 50 (RPMI-8226): −6.08 mol/L
Log LC 50 (RPMI-8226): −4.33 mol/L
Log GI 50 (SF-268): −4.95 mol/L
Log LC 50 (SF-268): −4.00 mol/L
Log GI 50 (BT-549): −4.56 mol/L
Log LC 50 (BT-549): −4.00 mol/L
Log GI 50 (HCT-116): −4.47 mol/L
Log LC 50 (HCT-116): −4.00 mol/L
Log GI 50 (UACC-62): −4.83 mol/L
Log LC 50 (UACC-62): −4.00 mol/L
Log GI 50 (KM-12): −4.70 mol/L
Log LC 50 (KM-12): −4.04 mol/L
Log GI 50 (DU-145): −4.36 mol/L
Log LC 50 (DU-145): −4.00 mol/L
Log GI 50 (SN12C): −4.90 mol/L
Log LC 50 (SN12C): −4.00 mol/L
Log GI 50 (MDA-MB-435): −4.71 mol/L
Log LC 50 (MDA-MB-435): −4.08 mol/L
Log GI 50 (HOP-92): −4.68 mol/L
Log LC 50 (HOP-92): −4.00 mol/L
Log GI 50 (UO-31): −4.12 mol/L
Log LC 50 (UO-31): −4.00 mol/L
Log GI 50 (HL-60(TB)): −5.49 mol/L
Log LC 50 (HL-60(TB)): −4.00 mol/L
Log GI 50 (SK-MEL-5): −4.75 mol/L
Log LC 50 (SK-MEL-5): −4.00 mol/L
